Data on 11 compounds can be found in ChEMBL document CHEMBL1201862, “PubChem BioAssay data set” (2004).

Among the test systems are DU-145; HT-29; SNB-75; A498; NCI-H522; HOP-92; UO-31; UACC-62; SF-539; SF-268; EKVX; RPMI-8226; MOLT-4; M14; NCI-H460; BT-549; T47D; A549; HCC 2998.
Test in all cases: NCI tumour cell line growth inhibition, 48 h

Each structure is given as a SMILES string.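 Following 48 hours of exposure in 96-well plates, responses at five concentrations were used to interpolate endpoints linearly. GI50 marks 50% less growth.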 Active and inactive are the calls of the source. Cut-off read from the data, not from the text of the source: active = GI50 up to about 1.1 µM and inactive = higher. Starred links: 1 amine or outer side, 2 acyl side, 3 side chain; linkers in the order of their positions; H or OH if unused. Non-standard residues stand in square brackets, D forms with d. Residues, ends and D or L forms follow the SMILES beside them. *: point of attachment. X34 = CC(=O)N(C)SCC(N[*:1])C(=O)[*:2]; Cbz = O=C(OCc1ccccc1)*; Bn = c1ccc(C*)cc1; For = O=C*

As for `CC(=O)c1ccc(O)c(CN(C2CCCCC2)C2CCCCC2)c1O`, the GI50 is > 100 µM (inactive) with DU-145; > 100 µM (inactive) in the assay with HT-29; 2.19 µM (inactive) with SNB-75; > 100 µM (inactive) with A498; > 100 µM (inactive) with NCI-H522; > 100 µM (inactive) in the assay on HOP-92. For the same compound, the GI50 is 83.2 µM (inactive) with UO-31; > 100 µM (inactive) with UACC-62; > 100 µM (inactive) in the assay on SF-539; > 100 µM (inactive) with SF-268; > 100 µM (inactive) with EKVX; > 100 µM (inactive) in the assay on RPMI-8226. Further, the GI50 in the assay with MOLT-4 was 61.4 µM (inactive); in the assay on M14 it was > 100 µM (inactive); with NCI-H460 it was > 100 µM (inactive); with BT-549, > 100 µM (inactive); in the assay on T47D, 21.6 µM (inactive); with A549, > 100 µM (inactive).
Turning to `NP1(Oc2ccc(F)cc2)=NP(N)(Oc2ccc(F)cc2)=NP(Oc2ccc(F)cc2)(Oc2ccc(F)cc2)=N1` (centres undefined), the GI50 in the assay with DU-145 was 7.52 µM (inactive); in the assay with HT-29, 5.43 µM (inactive); in the assay on HCC 2998, 3.19 µM (inactive); with SNB-75 it was 3.67 µM (inactive); in the assay with A498, < 0.01 µM (active); in the assay with HOP-92 it was 3.78 µM (inactive). In addition, the GI50 in the assay with UO-31 was 4.06 µM (inactive); in the assay with SF-539 it was 14.5 µM (inactive); with SF-268, 13.8 µM (inactive); in the assay with EKVX, 6.82 µM (inactive); in the assay with RPMI-8226, 4.59 µM (inactive); in the assay with MOLT-4, 3.37 µM (inactive). Moreover, the GI50 in the assay with M14 is 6.9 µM (inactive); with NCI-H460 it was 3.7 µM (inactive); in the assay with BT-549 it was 2.23 µM (inactive); in the assay on T47D, 2.4 µM (inactive); in the assay on A549, 3.99 µM (inactive).
With `CCOC(=O)[C@@H]1C[C@H]1c1ccc(O)c(O)c1`, the GI50 in the assay on DU-145 was 10.1 µM (inactive); with HT-29, 55.5 µM (inactive); in the assay with HCC 2998 it was 31.6 µM (inactive); in the assay with NCI-H522 it was 16.4 µM (inactive); with HOP-92 it was > 100 µM (inactive); in the assay on UO-31, 31.3 µM (inactive). The GI50 with UACC-62 was 17.1 µM (inactive); in the assay with SF-539 it was 91 µM (inactive); in the assay with SF-268, 67.6 µM (inactive); in the assay with EKVX it was > 100 µM (inactive); in the assay on RPMI-8226, 30.9 µM (inactive); in the assay with MOLT-4, 18.5 µM (inactive). Further, the GI50 in the assay with M14 is 34.8 µM (inactive); in the assay with NCI-H460, 58.2 µM (inactive); with BT-549, 43.4 µM (inactive); in the assay with T47D, 30.1 µM (inactive); with A549, 41.3 µM (inactive).
Take `O=c1[nH]c2nc3ccccc3c(=O)n2/c1=C/c1ccc(O)cc1`: the GI50 was 30.8 µM (inactive) in the assay on DU-145; 24 µM (inactive) in the assay on HT-29; 22.2 µM (inactive) with HCC 2998; 23.8 µM (inactive) with SNB-75; 23.2 µM (inactive) with NCI-H522; 49.5 µM (inactive) in the assay with HOP-92. Further, the GI50 was 53.7 µM (inactive) in the assay with UO-31; 27 µM (inactive) in the assay on UACC-62; 21.3 µM (inactive) in the assay with SF-539; 25.4 µM (inactive) with SF-268; 54.3 µM (inactive) in the assay on EKVX; 16.9 µM (inactive) in the assay on RPMI-8226. Moreover, the GI50 with MOLT-4 is 31.7 µM (inactive); in the assay on M14 it was 36.8 µM (inactive); with BT-549, 32.1 µM (inactive); with T47D, 42.2 µM (inactive); in the assay on A549, 40.6 µM (inactive).
For `CCc1ncnc2cc(OCC3CO3)c(OC)cc12` (centres undefined), the GI50 in the assay with DU-145 is 4.15 µM (inactive); in the assay with HT-29, 4.83 µM (inactive); in the assay on SNB-75, 17.3 µM (inactive); with A498, 21.3 µM (inactive); in the assay on NCI-H522, 2.31 µM (inactive); with HOP-92, 4.26 µM (inactive). The GI50 was 2.03 µM (inactive) with UO-31; 2.86 µM (inactive) in the assay on UACC-62; 5.98 µM (inactive) with SF-539; 2.64 µM (inactive) with SF-268; 10.6 µM (inactive) with EKVX; 0.153 µM (active) in the assay with MOLT-4. The GI50 in the assay on M14 was 5.28 µM (inactive); in the assay on NCI-H460, 5.53 µM (inactive); in the assay on BT-549, 3.95 µM (inactive); with T47D, 20.9 µM (inactive); with A549, 4.49 µM (inactive).
For the compound `O=CN(CCN1CCCC1)C1CCc2cc(Cl)c(Cl)cc2C1` (centres undefined), the GI50 in the assay with DU-145 was 34.7 µM (inactive); with HT-29, 5.75 µM (inactive); in the assay with HCC 2998, 17.5 µM (inactive); in the assay with NCI-H522, 10.1 µM (inactive); with HOP-92 it was 33.2 µM (inactive); in the assay on UO-31, 14.1 µM (inactive). The GI50 with SF-539 was 30.5 µM (inactive); in the assay with SF-268 it was 18.5 µM (inactive); in the assay with EKVX, 27.2 µM (inactive); in the assay with RPMI-8226 it was 20.6 µM (inactive); in the assay on MOLT-4, 24.4 µM (inactive); in the assay with M14, 15.9 µM (inactive). In addition, the GI50 with NCI-H460 is 0.196 µM (active); in the assay on BT-549 it was 14.1 µM (inactive); in the assay on T47D, 11.1 µM (inactive); with A549, 7.71 µM (inactive).
For `CCOP(=O)(OCC)C(C)(CC)NC1=NC(C(F)(F)F)(C(F)(F)F)NC(=O)N1` (centres undefined), the GI50 in the assay on DU-145, in the assay on HT-29, with HCC 2998, with SNB-75, in the assay on HOP-92 and in the assay on UO-31 was > 100 µM (inactive) throughout. The GI50 in the assay on UACC-62, with SF-539, in the assay with SF-268, in the assay on EKVX, with RPMI-8226 and with MOLT-4 was > 100 µM (inactive) in each case. Also, the GI50 with M14 is > 100 µM (inactive); with NCI-H460, > 100 µM (inactive); with BT-549 it was > 100 µM (inactive); in the assay on T47D, 82 µM (inactive); in the assay on A549 it was > 100 µM (inactive).
Regarding `N#CCCN(CCC#N)c1ccc(/C=C2\N=C(c3ccccc3)N(c3ccccn3)C2=O)cc1`, the GI50 in the assay on DU-145, in the assay on HT-29, in the assay with A498, in the assay with HOP-92, in the assay on UO-31 and with UACC-62 was > 100 µM (inactive) in each case. The GI50 with SF-539, in the assay with SF-268, with EKVX, in the assay on RPMI-8226, in the assay with MOLT-4 and with M14 was > 100 µM (inactive) throughout. The GI50 with NCI-H460, in the assay with BT-549, in the assay with T47D and in the assay on A549 was > 100 µM (inactive) throughout.
On to `Nc1ccccc1C(=O)CC1OC(=O)c2ccccc21` (centres undefined), for which the GI50 was 51.4 µM (inactive) in the assay on DU-145; > 100 µM (inactive) with HT-29; 23 µM (inactive) with SNB-75; 43.2 µM (inactive) in the assay with A498; > 100 µM (inactive) in the assay with NCI-H522; > 100 µM (inactive) in the assay with HOP-92. Besides, the GI50 in the assay with UO-31 is > 100 µM (inactive); in the assay with UACC-62, 64.9 µM (inactive); in the assay on SF-539, 36 µM (inactive); in the assay on SF-268, 69.3 µM (inactive); in the assay with EKVX, 34.9 µM (inactive); with RPMI-8226, 38.1 µM (inactive). The GI50 in the assay with MOLT-4 is > 100 µM (inactive); in the assay with M14, > 100 µM (inactive); with NCI-H460 it was 61.2 µM (inactive); in the assay with BT-549 it was 35 µM (inactive); in the assay on T47D it was 81.8 µM (inactive); with A549, 65.6 µM (inactive).
As for `COc1ccc(/C=C/c2cc(O)cc(OC)c2)cc1`, the GI50 with DU-145 is > 100 µM (inactive); in the assay with HT-29, > 100 µM (inactive); in the assay on SNB-75, > 100 µM (inactive); in the assay on A498, > 100 µM (inactive); in the assay with NCI-H522, 65.3 µM (inactive); with HOP-92, 50.7 µM (inactive). Besides, the GI50 with UO-31 is > 100 µM (inactive); in the assay with UACC-62, > 100 µM (inactive); with SF-539, > 100 µM (inactive); in the assay with SF-268 it was > 100 µM (inactive); with EKVX it was 55.3 µM (inactive); in the assay on RPMI-8226, 22.3 µM (inactive). For the same compound, the GI50 is 56.5 µM (inactive) in the assay on MOLT-4; > 100 µM (inactive) in the assay with M14; 84.5 µM (inactive) in the assay with NCI-H460; 22.9 µM (inactive) in the assay with BT-549; > 100 µM (inactive) with T47D; 97.3 µM (inactive) in the assay with A549.
In the case of `CC(=O)N(C)SCC(NC(=O)C(Cc1ccccc1)NC(=O)OCc1ccccc1)C(=O)NC(Cc1ccccc1)C(=O)NC(Cc1cn(C=O)c2ccccc12)C(=O)NC(CCCCNC(=O)OCc1ccccc1)C(=O)NC(C(=O)NC(CSN(C)C(C)=O)C(=O)NC(C(N)=O)C(C)OCc1ccccc1)C(C)OCc1ccccc1` (centres undefined) (Cbz-F[X34]FW(For)K(Cbz)T(Bn)[X34]T(Bn)-NH2; configuration not given here), the GI50 in the assay with DU-145 is > 100 µM (inactive); with HT-29, > 100 µM (inactive); in the assay on HCC 2998, > 100 µM (inactive); with SNB-75 it was 11.3 µM (inactive); in the assay on NCI-H522, 87.9 µM (inactive); with HOP-92 it was 19.7 µM (inactive). Besides, the GI50 is 45.7 µM (inactive) in the assay with UO-31; 84.9 µM (inactive) in the assay with UACC-62; 44 µM (inactive) with SF-539; > 100 µM (inactive) in the assay on SF-268; > 100 µM (inactive) in the assay on EKVX; > 100 µM (inactive) in the assay with RPMI-8226. Moreover, the GI50 was > 100 µM (inactive) in the assay with MOLT-4; 46.9 µM (inactive) in the assay with M14; > 100 µM (inactive) with NCI-H460; 21.1 µM (inactive) in the assay on BT-549; > 100 µM (inactive) in the assay on T47D; > 100 µM (inactive) in the assay on A549.
